Data from paper doi:10.1101/2025.07.07.663444v1, “Antifungal therapeutic potential of Candida albicans Fun30: screening and validation of novel inhibitors against Candida albicans” (biorxiv, 2025).

What was measured:
CaFun30-c334 = biological target: T1, CaFun30-c334 (Candida albicans, UniProt A0A1D8PTJ0); test: biolayer interferometry (Octet R8, Ni-NTA sensor, protein immobilised); assay type: binding; settings: PBS pH 7.4, 2 mM beta-mercaptoethanol; 1:1 model
T1 construct: gene FUN30; C-terminal fragment (RecA-like domain 2, motifs IV-VI, no ATPase activity), probably the last 334 residues; pCOLD I vector (N-terminal His tag implied), E. coli BL21(DE3) Rosetta, Ni-NTA purified
T1 sequence (A0A1D8PTJ0 764-1097): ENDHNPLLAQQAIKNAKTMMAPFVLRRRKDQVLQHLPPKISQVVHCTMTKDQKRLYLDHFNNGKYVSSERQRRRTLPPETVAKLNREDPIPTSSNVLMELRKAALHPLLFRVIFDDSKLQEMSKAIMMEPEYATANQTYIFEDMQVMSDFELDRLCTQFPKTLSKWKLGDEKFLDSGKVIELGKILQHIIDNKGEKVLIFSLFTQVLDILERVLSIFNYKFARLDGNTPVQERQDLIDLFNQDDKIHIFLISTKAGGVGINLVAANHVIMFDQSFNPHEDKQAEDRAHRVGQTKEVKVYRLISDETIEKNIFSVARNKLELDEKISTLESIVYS

CaFun30 = biological target: T2, CaFun30 (Candida albicans, UniProt A0A1D8PTJ0); test: as above; assay type: binding; settings: PBS pH 7.4, 2 mM beta-mercaptoethanol; 1:1 model
T2 construct: gene FUN30; full length, cloned NheI/XhoI in pET21c(+), expressed in E. coli BL21(DE3) Rosetta, Ni-NTA purified
T2 sequence (A0A1D8PTJ0 1-1097): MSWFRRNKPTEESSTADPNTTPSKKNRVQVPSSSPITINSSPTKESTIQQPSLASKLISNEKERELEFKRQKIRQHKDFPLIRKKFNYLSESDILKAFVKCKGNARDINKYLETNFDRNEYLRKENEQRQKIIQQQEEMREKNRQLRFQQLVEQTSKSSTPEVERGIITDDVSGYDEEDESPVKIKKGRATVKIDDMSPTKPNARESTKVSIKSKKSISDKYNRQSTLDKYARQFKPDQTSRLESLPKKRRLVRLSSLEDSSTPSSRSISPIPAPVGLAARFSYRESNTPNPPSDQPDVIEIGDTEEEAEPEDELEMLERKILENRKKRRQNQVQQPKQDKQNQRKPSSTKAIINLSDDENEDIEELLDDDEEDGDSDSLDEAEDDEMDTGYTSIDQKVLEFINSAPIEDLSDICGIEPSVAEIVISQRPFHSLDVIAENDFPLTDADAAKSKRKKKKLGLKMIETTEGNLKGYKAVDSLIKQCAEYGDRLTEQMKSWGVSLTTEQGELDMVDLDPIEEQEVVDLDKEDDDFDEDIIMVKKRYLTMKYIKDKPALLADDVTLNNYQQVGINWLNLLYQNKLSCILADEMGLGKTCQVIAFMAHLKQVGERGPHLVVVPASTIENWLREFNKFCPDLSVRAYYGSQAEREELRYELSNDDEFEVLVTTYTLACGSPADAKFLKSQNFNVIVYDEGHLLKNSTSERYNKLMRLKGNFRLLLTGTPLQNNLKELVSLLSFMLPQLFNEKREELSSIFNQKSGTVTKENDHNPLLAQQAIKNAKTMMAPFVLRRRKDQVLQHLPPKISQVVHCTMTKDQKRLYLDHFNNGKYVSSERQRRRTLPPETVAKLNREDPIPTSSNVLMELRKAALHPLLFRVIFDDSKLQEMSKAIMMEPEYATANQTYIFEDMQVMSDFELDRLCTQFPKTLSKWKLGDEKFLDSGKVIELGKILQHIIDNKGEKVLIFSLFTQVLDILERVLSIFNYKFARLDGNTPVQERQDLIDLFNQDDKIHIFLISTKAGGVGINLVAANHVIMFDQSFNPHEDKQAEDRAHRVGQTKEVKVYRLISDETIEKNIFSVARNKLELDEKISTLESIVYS

Compound	Kd (CaFun30-c334)	Kd (CaFun30)
Cc1ccc(NC(=O)CSc2nc(C(F)(F)F)cc(=O)[nH]2)cc1Cl [F2716-0594]	25.1 µM	680 µM
CCc1cc2c(=O)c(-c3ccc(F)cc3)c(C)oc2cc1OCc1ccccc1 [F1067-0218]	18 µM	125 µM
Cc1nnc2sc(SCC(=O)Nc3ccc(Cl)cc3)nn2c1=O [F1853-0039]	0.87 µM	0.6 µM
